In US20250059164A1, “IRAK DEGRADERS AND USES THEREOF” (Kymera Therapeutics, Inc., priority 2023, published 2025):

Molecular target: T1, IRAK4 (Homo sapiens, UniProt Q9NWZ3)
T1 construct: endogenous in cells; host or cells: OCI-LY10
T1 sequence (Q9NWZ3 1-460): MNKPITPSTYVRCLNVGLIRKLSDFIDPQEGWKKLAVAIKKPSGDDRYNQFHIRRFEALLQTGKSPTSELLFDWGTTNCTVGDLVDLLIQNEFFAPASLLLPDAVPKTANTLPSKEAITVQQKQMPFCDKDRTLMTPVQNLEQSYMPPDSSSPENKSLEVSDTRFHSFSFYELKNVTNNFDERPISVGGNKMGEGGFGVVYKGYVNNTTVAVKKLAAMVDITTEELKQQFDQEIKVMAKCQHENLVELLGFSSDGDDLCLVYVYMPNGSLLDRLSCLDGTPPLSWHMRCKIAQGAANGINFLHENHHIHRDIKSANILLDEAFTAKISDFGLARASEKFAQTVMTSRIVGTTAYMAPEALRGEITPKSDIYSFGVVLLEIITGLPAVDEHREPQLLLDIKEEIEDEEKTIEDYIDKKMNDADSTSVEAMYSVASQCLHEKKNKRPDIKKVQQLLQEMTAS
Test: IRAK4 MSD degradation in OCI-LY10
Type: cell-based
Conditions: OCI-LY10 cells, 24 hrs, Meso Scale Discovery
Description: Degradation of IRAK4 in OCI-LY10 was quantitatively measured using Meso Scale Discovery technology. […] Compounds were then added to the assay plates with a final top concentration of 1 to 10 μM in a 1:3 dilution series with total of 8 doses. The assay plates were then incubated for 4 to 24 hours at 37° C. under 5% CO2. […] To prepare MSD assay plates (Meso Scale Discovery Catalog number L15XA-3), the plates were coated with 2 μg/mL capture antibody (mouse Anti-IRAK4 antibody [2H9], ab119942) in PBS, at 40 μL/well. […] Cell lysates were then added to MSD assay plates and the plates were incubated at room temperature for 1 hour. The plates were then washed 3 times with 150 μL/well TBST buffer and 25 μL/well primary detection antibody (rabbit Anti-IRAK4 antibody [Y279], from Abcam. Catalog number ab32511, 1 μg/mL). The assay plates were then incubated at room temperature for 1 hour, washed 3 times with 150 μL/well TBST buffer and 25 μL/well secondary detection antibody, SULFO-TAG anti-rabbit antibody were added (anti-rabbit antibody from Meso Scale Discovery, Catalog number R32AB-1, 1 μg/mL). The assay plates were then incubated at room temperature for 1 hour, washed 3 times with 150 μL/well TBST buffer, and 150 μL/well MSD reading buffer (Meso Scale Discovery catalog number R92TC-2) was added. The plates were then analyzed by a MSD reader (Meso Scale Discovery, Model Quick Plex SQ 120). The data was then analyzed by software Prism 7.0 from GraphPad and the dose-depended IRAK4 degradation were fit using a three-parameter logistic equation to calculate DC50.
The letter codes for IRAK4 DC50 include: A (<0.01 μM); B (0.01 to <0.1 μM); C (0.1 to 0.2 μM); D (>0.2 μM) and E (not tested).

CN(C[C@H]1CC[C@H](c2nc3cc(C(C)(C)O)c(NC(=O)c4cncc(C(F)(F)F)n4)cc3o2)CC1)[C@H]1CCN(c2cccc3c2n(C)c(=O)n3C2CCC(=O)NC2=O)C[C@H]1F (single isomer, unassigned) [I-299]
DC50: < 0.01 µM

CN(C[C@H]1CC[C@H](c2nc3cc(C(C)(C)O)c(NC(=O)c4cncc(C(F)(F)F)n4)cc3s2)CC1)[C@@H]1CCN(c2cccc3c2n(C)c(=O)n3C2CCC(=O)NC2=O)C[C@H]1F (single isomer, unassigned) [I-300]
DC50: < 0.01 µM

Cn1c(=O)n(C2CCC(=O)NC2=O)c2cccc(C#CCN3CCN(C[C@H]4CC[C@H](n5cc(NC(=O)c6cnn7ccc(N8C[C@H]9C[C@@H]8CO9)nc67)c(C(F)F)n5)CC4)C[C@@H]3C(F)(F)F)c21 (single isomer, unassigned) [I-303]
DC50: 0.01 to 0.1 µM

COc1cc2nc([C@H]3CC[C@H](CN(C)[C@@H]4CCN(c5cccc6c5n(C)c(=O)n6C5CCC(=O)NC5=O)C[C@H]4F)CC3)cn2cc1NC(=O)c1cncc(C(F)(F)F)n1 (single isomer, unassigned) [I-317]
DC50: < 0.01 µM

COc1cc2nc([C@H]3CC[C@H](CN(C)[C@H]4CCN(c5cccc6c5n(C)c(=O)n6C5CCC(=O)NC5=O)C[C@@H]4F)CC3)cn2cc1NC(=O)c1cncc(C(F)(F)F)n1 (single isomer, unassigned) [I-318]
DC50: < 0.01 µM

Cn1c(=O)n(C2CCC(=O)NC2=O)c2cccc(N3CCN(C[C@H]4CC[C@H](n5cc6cc(NC(=O)c7cncc(C(F)(F)F)n7)ccc6n5)CC4)C[C@H]3C(F)(F)F)c21 (single isomer, unassigned) [I-325]
DC50: 0.01 to 0.1 µM

Cn1c(=O)n(C2CCC(=O)NC2=O)c2cccc([C@@H]3CCN(C[C@H]4CC[C@H](c5nc6cc(C(C)(C)O)c(NC(=O)c7cncc(C(F)(F)F)n7)cc6o5)CC4)CC3(F)F)c21 (single isomer, unassigned) [I-327]
DC50: < 0.01 µM

Cn1c(=O)n(C2CCC(=O)NC2=O)c2cccc([C@H]3CCN(C[C@H]4CC[C@H](c5nc6cc(C(C)(C)O)c(NC(=O)c7cncc(C(F)(F)F)n7)cc6o5)CC4)CC3(F)F)c21 (single isomer, unassigned) [I-328]
DC50: 0.01 to 0.1 µM

COc1cc2nc([C@H]3CC[C@H](CN(C)[C@H]4CCN(c5cccc6c5n(C)c(=O)n6C5CCC(=O)NC5=O)C[C@H]4F)CC3)cn2cc1NC(=O)c1cncc(C(F)(F)F)n1 (single isomer, unassigned) [I-333]
DC50: < 0.01 µM

CN(C[C@H]1CC[C@H](c2cn3cc(NC(=O)c4cncc(C(F)(F)F)n4)c(C(C)(C)O)cc3n2)CC1)[C@@H]1CCN(c2cccc3c2n(C)c(=O)n3C2CCC(=O)NC2=O)C[C@H]1F (single isomer, unassigned) [I-334]
DC50: < 0.01 µM

CN(C[C@H]1CC[C@H](c2cn3cc(NC(=O)c4cncc(C(F)(F)F)n4)c(C(C)(C)O)cc3n2)CC1)[C@H]1CCN(c2cccc3c2n(C)c(=O)n3C2CCC(=O)NC2=O)C[C@@H]1F (single isomer, unassigned) [I-335]
DC50: < 0.01 µM

CN(C[C@H]1CC[C@H](c2cn3cc(NC(=O)c4cncc(C(F)(F)F)n4)c(C(C)(C)O)cc3n2)CC1)[C@H]1CCN(c2cccc3c2n(C)c(=O)n3C2CCC(=O)NC2=O)C[C@H]1F (single isomer, unassigned) [I-336]
DC50: < 0.01 µM

Cc1nn(C2CCC(=O)NC2=O)c2cccc([C@H]3CCN(C[C@H]4CC[C@H](n5cc6cc(NC(=O)c7cncc(C(F)(F)F)n7)ncc6n5)CC4)C[C@@H]3F)c12 (single isomer, unassigned) [I-341]
DC50: 0.01 to 0.1 µM

CN(C[C@H]1CC[C@H](c2cn3cc(NC(=O)c4cncc(C(F)(F)F)n4)c(C(C)(C)O)cc3n2)CC1)[C@@H]1CCN(c2cccc3c2n(C)c(=O)n3C2CCC(=O)NC2=O)C[C@@H]1F (single isomer, unassigned) [I-344]
DC50: < 0.01 µM

Cn1c(=O)n(C2CCC(=O)NC2=O)c2ccc([C@@H]3CCN(C[C@H]4CC[C@H](n5cc6cc(NC(=O)c7cncc(C(F)(F)F)n7)ccc6n5)CC4)C[C@H]3F)cc21 (single isomer, unassigned) [I-349]
DC50: > 0.2 µM

Cn1c(=O)n(C2CCC(=O)NC2=O)c2ccc([C@H]3CCN(C[C@H]4CC[C@H](n5cc6cc(NC(=O)c7cncc(C(F)(F)F)n7)ccc6n5)CC4)C[C@@H]3F)cc21 (single isomer, unassigned) [I-351]
DC50: > 0.2 µM

Cn1nc(C2CCC(=O)NC2=O)c2cccc([C@H]3CCN(C[C@H]4CC[C@H](n5cc6cc(NC(=O)c7cncc(C(F)(F)F)n7)ncc6n5)CC4)C[C@@H]3F)c21 (single isomer, unassigned) [I-359]
DC50: 0.01 to 0.1 µM

Cn1c(=O)n(C2CCC(=O)NC2=O)c2ccc(F)c([C@@H]3CCN(C[C@H]4CC[C@H](n5cc6cc(NC(=O)c7cncc(C(F)(F)F)n7)ccc6n5)CC4)CC3(F)F)c21 (single isomer, unassigned) [I-376]
DC50: < 0.01 µM

Cn1c(=O)n(C2CCC(=O)NC2=O)c2ccc(F)c([C@H]3CCN(C[C@H]4CC[C@H](n5cc6cc(NC(=O)c7cncc(C(F)(F)F)n7)ccc6n5)CC4)CC3(F)F)c21 (single isomer, unassigned) [I-377]
DC50: < 0.01 µM

Cn1nc(C2CCC(=O)NC2=O)c2cccc([C@@H]3CCN(C[C@H]4CC[C@H](n5cc6cc(NC(=O)c7cncc(C(F)(F)F)n7)ccc6n5)CC4)CC3(F)F)c21 (single isomer, unassigned) [I-379]
DC50: < 0.01 µM

Cn1nc(C2CCC(=O)NC2=O)c2cccc([C@H]3CCN(C[C@H]4CC[C@H](n5cc6cc(NC(=O)c7cncc(C(F)(F)F)n7)ccc6n5)CC4)CC3(F)F)c21 (single isomer, unassigned) [I-380]
DC50: < 0.01 µM

Cn1c(=O)n([C@@H]2CCC(=O)NC2=O)c2cccc([C@@H]3CCN(C[C@H]4CC[C@H](n5cc6cc(NC(=O)c7cncc(C(F)(F)F)n7)ccc6n5)CC4)CC3(F)F)c21 (single isomer, unassigned) [I-381]
DC50: < 0.01 µM

Cn1c(=O)n([C@H]2CCC(=O)NC2=O)c2cccc([C@@H]3CCN(C[C@H]4CC[C@H](n5cc6cc(NC(=O)c7cncc(C(F)(F)F)n7)ccc6n5)CC4)CC3(F)F)c21 (single isomer, unassigned) [I-385]
DC50: < 0.01 µM

Cn1nc([C@H]2CCC(=O)NC2=O)c2cccc([C@@H]3CCN(C[C@H]4CC[C@H](n5cc6cc(NC(=O)c7cncc(C#N)c7)c(C(C)(C)O)cc6n5)CC4)CC3(F)F)c21 (single isomer, unassigned) [I-417]
DC50: < 0.01 µM

O=C1CCC(Nc2cccc(N3CC(CO[C@H]4CCN(C[C@H]5CC[C@H](n6cc(NC(=O)c7cnn8ccc(N9C[C@H]%10C[C@@H]9CO%10)nc78)c(C(F)F)n6)CC5)C[C@@H]4F)C3)c2)C(=O)N1 (stereo partly drawn) [I-1]
DC50: 0.1 to 0.2 µM

CN(C[C@H]1CC[C@H](n2cc3cc(NC(=O)c4cccc(C(F)(F)F)n4)c(C(C)(C)O)cc3n2)CC1)[C@@H]1CCN(c2cccc3c2n(C)c(=O)n3C2CCC(=O)NC2=O)C[C@H]1F (stereo partly drawn) [I-2]
DC50: < 0.01 µM

CN1C(=O)CCC(n2c(=O)n(C)c3c(N4CC(N5CCN([C@H]6CC[C@H](n7cc(NC(=O)c8cnn9ccc(N%10C[C@H]%11C[C@@H]%10CO%11)nc89)c(C(F)F)n7)CC6)CC5)C4)c(F)ccc32)C1=O (stereo partly drawn) [I-3]
DC50: > 0.2 µM

O=C1CCC(Nc2cccc(N3CC(CO[C@@H]4CCN(C[C@H]5CC[C@H](n6cc(NC(=O)c7cnn8ccc(N9C[C@H]%10C[C@@H]9CO%10)nc78)c(C(F)F)n6)CC5)C[C@@H]4F)C3)c2)C(=O)N1 (stereo partly drawn) [I-5]
DC50: 0.01 to 0.1 µM

Cn1c(=O)n(C2CCC(=O)NC2=O)c2cccc([C@@H]3CCN(C[C@H]4CC[C@H](n5cc6cc(NC(=O)c7cccc(C(F)(F)F)n7)c(C(C)(C)O)cc6n5)CC4)C[C@H]3F)c21 (stereo partly drawn) [I-7]
DC50: < 0.01 µM

CN(C[C@H]1CC[C@H](n2cc3cc(NC(=O)c4cccc(C(F)(F)F)n4)c(C#N)cc3n2)CC1)[C@H]1CCN(c2cccc3c2n(C)c(=O)n3C2CCC(=O)NC2=O)C[C@H]1F (stereo partly drawn) [I-8]
DC50: < 0.01 µM

CN(C[C@H]1CC[C@H](n2cc3cc(NC(=O)c4cccc(C(F)(F)F)n4)c(C#N)cc3n2)CC1)[C@H]1CCN(c2cccc3c2n(C)c(=O)n3C2CCC(=O)NC2=O)C[C@@H]1F (stereo partly drawn) [I-9]
DC50: < 0.01 µM

CN(C[C@H]1CC[C@H](n2cc3cc(NC(=O)c4cccc(C(F)(F)F)n4)c(C#N)cc3n2)CC1)[C@@H]1CCN(c2cccc3c2n(C)c(=O)n3C2CCC(=O)NC2=O)C[C@@H]1F (stereo partly drawn) [I-10]
DC50: < 0.01 µM

O=C1CCC(Nc2cccc(N3CC(CN4CCN(C[C@H]5CC[C@H](n6cc(NC(=O)c7cnn8ccc(N9C[C@H]%10C[C@@H]9CO%10)nc78)c(C(F)F)n6)CC5)CC4)C3)c2)C(=O)N1 (stereo partly drawn) [I-13]
DC50: 0.01 to 0.1 µM
